This is an account of results in ChEMBL document CHEMBL5329189, “Design, synthesis, and anti-hepatocellular carcinoma of thiopyrimidine/chalcone hybrids as dual STAT3/STAT5 inhibitors” (RSC Med Chem, 2023).

The test system of series [1] is HepG2. The experiment in a line: Antitumor activity against human HepG2 cells measured after 48 hrs by MTT assay. Type of series: functional, cell-based. The conditions noted are these: HepG2, 48 h. For orientation: Formazan colour is commonly taken as a measure of viable cells.
Series [2] relates to Huh-7. Nature of the series: Antitumor activity against human Huh7 cells measured after 48 hrs by MTT assay. Type of series: functional, cell-based. The settings on record: Huh-7, 48 h.
Series [3] is described as follows: Cytotoxicity against THLE-2 cells measured after 48 hrs by MTT assay. In kind it is toxicity, cell-based. The settings on record: human.
For series [4], the target named is Signal transducer and activator of transcription 3 (Homo sapiens) (UniProt P40763). Nature of the series: Inhibition of STAT3 (unknown origin) using TMB as substrate assessed as reduction in phosphorylated STAT3 at Y705 residue incubated for 5 hrs by ELISA (reference value: 14.53 +/- 0.4 ng/ml). Background: ELISA stands for enzyme-linked immunosorbent assay.
Series [5] addresses T1, Signal transducer and activator of transcription 5A (Homo sapiens) (UniProt P42229).
T1 sequence (whole entry): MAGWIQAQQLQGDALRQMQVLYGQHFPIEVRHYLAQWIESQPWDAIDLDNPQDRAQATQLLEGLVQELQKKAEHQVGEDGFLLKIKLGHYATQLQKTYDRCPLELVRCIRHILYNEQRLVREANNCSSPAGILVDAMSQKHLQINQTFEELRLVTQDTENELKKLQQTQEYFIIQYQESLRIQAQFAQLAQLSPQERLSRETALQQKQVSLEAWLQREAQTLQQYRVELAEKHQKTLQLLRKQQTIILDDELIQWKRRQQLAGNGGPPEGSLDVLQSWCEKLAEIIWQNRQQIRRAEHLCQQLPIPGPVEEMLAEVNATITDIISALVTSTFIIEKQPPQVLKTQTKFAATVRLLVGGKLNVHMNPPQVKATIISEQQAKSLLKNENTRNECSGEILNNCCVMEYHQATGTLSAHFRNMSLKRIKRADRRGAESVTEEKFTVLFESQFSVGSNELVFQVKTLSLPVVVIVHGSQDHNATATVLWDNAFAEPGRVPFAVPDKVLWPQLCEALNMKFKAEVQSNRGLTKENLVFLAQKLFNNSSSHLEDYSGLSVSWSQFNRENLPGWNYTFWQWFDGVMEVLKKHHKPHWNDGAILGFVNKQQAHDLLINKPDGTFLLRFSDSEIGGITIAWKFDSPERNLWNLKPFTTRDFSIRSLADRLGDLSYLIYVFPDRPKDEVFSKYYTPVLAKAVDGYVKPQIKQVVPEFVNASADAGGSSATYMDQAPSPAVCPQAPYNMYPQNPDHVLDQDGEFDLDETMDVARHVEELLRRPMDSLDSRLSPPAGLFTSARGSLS
Nature of the series: Inhibition of STAT5a (unknown origin) using TMB as substrate assessed as reduction in phosphorylated STAT5a at Y694 residue incubated for 1.5 hrs by ELISA (reference value: 11.15 +/- 0.91 ng/ml).

Series [6] has as its system HepG2. The experiment in a line: Effect on total STAT5 protein level in human HepG2 cells incubated for 24 hrs by Western blot analysis. Type of series: functional, cell-based. For orientation: Immunoblotting shows a protein as a band on a membrane.
Series [7] has as its system HepG2. Nature of the series: Potency index, ratio of stattic IC50 to test compound IC50 for antitumor activity against human HepG2 cells incubated for 48 hrs by MTT assay. Type of series: functional.
Series [8] has as its system Huh-7. Nature of the series: Potency index, ratio of doxorubicin IC50 to test compound IC50 for antitumor activity against human Huh-7 cells incubated for 48 hrs by MTT assay. Type of series: functional.
Series [9] can be described thus: Selectivity index, ratio of IC50 for cytotoxicity against THLE-2 cells to IC50 for antitumor activity against human HepG2 cells. The conditions noted are these: THLE-2 cells versus HepG2 cells, read-out: Ratio IC50. In kind it is cell-based.
Series [10] addresses T2, Signal transducer and activator of transcription 1-alpha/beta (Homo sapiens) (UniProt P42224).
T2 sequence (whole entry): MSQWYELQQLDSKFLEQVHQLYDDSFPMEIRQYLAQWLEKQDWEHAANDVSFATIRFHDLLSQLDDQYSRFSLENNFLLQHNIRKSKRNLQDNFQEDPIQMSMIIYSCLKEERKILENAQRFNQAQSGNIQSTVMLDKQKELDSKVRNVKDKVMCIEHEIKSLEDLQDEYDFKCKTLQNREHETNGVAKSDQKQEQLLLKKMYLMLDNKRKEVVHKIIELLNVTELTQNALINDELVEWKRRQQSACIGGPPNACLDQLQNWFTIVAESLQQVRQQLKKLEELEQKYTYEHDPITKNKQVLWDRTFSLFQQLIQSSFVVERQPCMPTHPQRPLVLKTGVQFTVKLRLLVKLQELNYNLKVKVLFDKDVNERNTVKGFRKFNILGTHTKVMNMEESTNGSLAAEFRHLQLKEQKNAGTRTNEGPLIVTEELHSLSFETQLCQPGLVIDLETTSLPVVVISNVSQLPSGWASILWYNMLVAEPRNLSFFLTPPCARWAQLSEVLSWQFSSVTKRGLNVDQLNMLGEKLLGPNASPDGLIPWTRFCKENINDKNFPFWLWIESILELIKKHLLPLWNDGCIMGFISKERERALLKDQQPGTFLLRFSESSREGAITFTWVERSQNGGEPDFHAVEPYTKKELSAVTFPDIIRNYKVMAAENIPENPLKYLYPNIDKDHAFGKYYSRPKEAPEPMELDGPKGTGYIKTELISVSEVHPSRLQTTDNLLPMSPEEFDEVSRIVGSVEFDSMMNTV
The experiment in a line: Inhibition of STAT1 in human HepG2 cells assessed as reduction in STAT1 phosphorylation at Tyr701 residue incubated for 24 hrs by Western blot analysis. Type of series: cell-based.

Series [11] has as its system HepG2. Nature of the series: Effect on total STAT3 protein level in human HepG2 cells incubated for 24 hrs by Western blot analysis. In kind it is functional, cell-based.
The subject of series [12] is HepG2. Nature of the series: Inhibition of STAT5 phosphorylation at Tyr694 residue in human HepG2 cells incubated for 24 hrs by Western blot analysis. Type of series: cell-based.
Series [13] has as its target Signal transducer and activator of transcription 3 (Homo sapiens) (UniProt P40763). The experiment in a line: Inhibition of STAT3 (unknown origin) using TMB as substrate assessed as reduction in phosphorylated STAT3 at Y705 residue by measuring fold change at 10 uM incubated for 5 hrs by ELISA relative to control.
Series [14] deals with HepG2. Nature of the series: Potency index, ratio of doxorubicin IC50 to test compound IC50 for antitumor activity against human HepG2 cells incubated for 48 hrs by MTT assay. In kind it is functional.
Series [15] can be described thus: Selectivity index, ratio of IC50 for cytotoxicity against THLE-2 cells to IC50 for antitumor activity against human Huh-7 cells. Type of series: cell-based. The settings on record: THLE-2 cells versus Huh-7 cells, read-out: Ratio IC50.
The target of series [16] is Signal transducer and activator of transcription 3 (Homo sapiens) (UniProt P40763). Nature of the series: Inhibition of STAT3 (unknown origin) using TMB as substrate assessed as reduction in phosphorylated STAT3 at Y705 residue at 10 uM incubated for 5 hrs by ELISA (reference value: 14.53 +/- 0.4 ng/ml).
The target is the same in series [17]. The experiment in a line: Inhibition of STAT3 phosphorylation at Tyr705 residue in human HepG2 cells incubated for 24 hrs by Western blot analysis. In kind it is cell-based.
For series [18], the target named is T1, Signal transducer and activator of transcription 5A (Homo sapiens). The experiment in a line: Inhibition of STAT5a (unknown origin) using TMB as substrate assessed as reduction in phosphorylated STAT5a at Y694 residue by measuring fold change at 10 uM incubated for 1.5 hrs by ELISA relative to control.
Series [19] has the same target. The experiment in a line: Inhibition of STAT5a (unknown origin) using TMB as substrate assessed as reduction in phosphorylated STAT5a at Y694 residue at 10 uM incubated for 1.5 hrs by ELISA (reference value: 11.15 +/- 0.91 ng/ml).
Series [20] relates to Huh-7. Nature of the series: Potency index, ratio of static IC50 to test compound IC50 for antitumor activity against human Huh-7 cells incubated for 48 hrs by MTT assay. In kind it is functional.

Activity calls are given as the source filed them. The calls are words filed in the database; no cut-off is given here. Some results are limits rather than exact numbers.

Chain of Signal transducer and activator of transcription 3 (Homo sapiens) (P40763 whole entry): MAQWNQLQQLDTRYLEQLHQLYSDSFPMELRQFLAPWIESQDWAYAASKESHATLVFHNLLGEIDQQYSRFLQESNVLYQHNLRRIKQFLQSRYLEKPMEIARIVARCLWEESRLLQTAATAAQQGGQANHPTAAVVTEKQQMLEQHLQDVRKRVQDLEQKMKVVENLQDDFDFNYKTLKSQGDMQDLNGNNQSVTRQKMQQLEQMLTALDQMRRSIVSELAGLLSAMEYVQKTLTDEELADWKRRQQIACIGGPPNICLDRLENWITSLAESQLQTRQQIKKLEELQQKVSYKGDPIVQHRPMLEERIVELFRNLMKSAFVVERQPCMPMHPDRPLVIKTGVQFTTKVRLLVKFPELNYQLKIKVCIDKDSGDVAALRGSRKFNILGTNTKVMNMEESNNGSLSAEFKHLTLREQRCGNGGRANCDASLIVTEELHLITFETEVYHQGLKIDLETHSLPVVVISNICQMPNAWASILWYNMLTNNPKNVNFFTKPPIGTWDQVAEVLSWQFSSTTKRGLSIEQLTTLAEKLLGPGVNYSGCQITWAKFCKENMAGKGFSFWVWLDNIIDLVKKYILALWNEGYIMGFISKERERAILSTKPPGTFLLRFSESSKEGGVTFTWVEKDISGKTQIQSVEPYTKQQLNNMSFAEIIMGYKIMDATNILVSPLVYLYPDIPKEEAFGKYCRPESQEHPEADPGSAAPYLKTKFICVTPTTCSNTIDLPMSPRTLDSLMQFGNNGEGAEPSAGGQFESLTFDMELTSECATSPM

One may read the IC50 as the concentration that inhibits the measured activity by half. In the case of `Nc1cc(=O)[nH]c(SCC(=O)Nc2ccc(C(=O)/C=C/c3ccc(Cl)cc3)cc2)n1`, the IC50 in the series on HepG2 [1] came to 11.2 µM; in the series on Huh-7 [2], 7.27 µM.
Consider `O=[N+]([O-])c1ccc2c(c1)S(=O)(=O)C=C2`, for which the IC50 with HepG2 [1] was 8.35 µM; in the series with Huh-7 [2], 7.89 µM. In addition, the IC50 at 48 h in series [3] is greater than 100 µM. The Activity in [4] was found to be 4.9 ng/mL; in series [5] it was 9.43 ng/mL.
As to `COc1ccc(/C=C/C(=O)c2ccc(NC(=O)CSc3nc(N)cc(=O)[nH]3)cc2)cc1`, the IC50 in the series on HepG2 [1] came out at 8.14 µM; in the series with Huh-7 [2], 6.7 µM.
On to `COc1cc(/C=C/C(=O)c2ccc(NC(=O)CSc3nc(N)cc(=O)[nH]3)cc2)cc(OC)c1OC`, for which the result with HepG2 [6] and with HepG2 [11] was inactive. In addition, the “Ratio IC50” value stood at 4.2 with HepG2 [7], 10.4 with Huh-7 [8], 3.7 with HepG2 [14] and 14.3 with Huh-7 [20]. In addition, the IC50 in the series with HepG2 [1] was 1.95 µM; in the series on Huh-7 [2], 0.55 µM. The half-maximal inhibitory concentration (IC50) at 48 h in [3] came out at 63.2 µM. The results for the selectivity ratio in series [9] and in [15] were 32.4 and 115, respectively. The inhibition entry in [10] is “inactive”. In addition, the inhibition entry (with HepG2 [12]; in series [17]) was “Active” in each case. For the same molecule, the fold change (FC) worked out at 4.5 in series [13] and 4.8 in series [18]. Moreover, the Activity in series [16] stood at 3.19 ng/mL; in [19] it was 2.28 ng/mL.
For `Cc1ccc(/C=C/C(=O)c2ccc(NC(=O)CSc3nc(N)cc(=O)[nH]3)cc2)cc1`, the IC50 in the series with HepG2 [1] is 2.58 µM; in the series on Huh-7 [2], 2.44 µM. In [3], this molecule came in with an IC50 at 48 h of 49.5 µM. Also, the results for the selectivity ratio in [9] and in [15] were 19.2 and 20.3, respectively. The fold change (FC) worked out at 2.8 in series [13] and 2.5 in series [18]. In addition, the Activity in series [16] stood at 5.09 ng/mL; in series [19] it was 4.44 ng/mL.
As to `Nc1cc(=O)[nH]c(SCC(=O)Nc2ccc(C(=O)/C=C/c3ccccc3Cl)cc2)n1`, the figures for the IC50 in the series on HepG2 [1] and with Huh-7 [2] were 3.57 µM and 2.17 µM, respectively.
On to `Nc1cc(=O)[nH]c(SCC(=O)Nc2ccc(C(=O)/C=C/c3ccc(Cl)cc3Cl)cc2)n1`, for which the values for the IC50 with HepG2 [1] and in the series on Huh-7 [2] were 4.94 µM and 8.32 µM, respectively.
For `COc1cccc2c1C(=O)c1c(O)c3c(c(O)c1C2=O)C[C@@](O)(C(=O)CO)C[C@@H]3O[C@H]1C[C@H](N)[C@H](O)[C@H](C)O1` [DOXORUBICIN] the same measures were 7.34 µM and 5.7 µM.
Consider `COc1cc(/C=C/C(=O)c2ccc(NC(=O)CSc3nc(N)cc(=O)[nH]3)cc2)cc(OC)c1`, for which the results for the IC50 with HepG2 [1] and in the series with Huh-7 [2] were 5.08 µM and 1.58 µM, respectively.
The like results for `Nc1cc(=O)[nH]c(SCC(=O)Nc2ccc(C(=O)/C=C/c3ccc(F)cc3)cc2)n1` were, in that order, 22.6 µM and 25 µM.
For `CN(C)c1ccc(/C=C/C(=O)c2ccc(NC(=O)CSc3nc(N)cc(=O)[nH]3)cc2)cc1` the same measures were 31.1 µM and 23.1 µM.
